In patent US12280018B2, “Antiseptic compositions” (RHT LIMITED, priority 2020, dated 2025) one finds CFU/plate data, which are given here for 1 molecule.

Experiment [1] concerns PolySeed® BOD Seed Inoculum (blend of broad spectrum bacteria). In words: Durability test (bacteria spiked regularly on treated agar plate, swab viable count). The class given is cell-based. The settings on record: bacteria solution spiked every 60 minutes. On the procedure:
To evaluate the durability of bacteria inhibition of the exemplary compositions, durability test by regularly spiking a fixed amount of bacteria into the sample is performed and the procedures are incorporated herein by reference.
• Group A: Agar plate with 0.5 mL distilled water; • Group B: Agar plate with 0.5 mL 75% isopropyl alcohol (IPA); • Group C: Agar plate with 0.5 g of tested exemplary composition.
Bacteria strain used: PolySeed® BOD Seed Inoculum Capsules (1 caspsule dissolved into 500 mL Distilled Water) (Interlab), which contains a blend of broad spectrum bacteria designed specifically as a seed inoculum for the Biochemical Oxygen Demand (BOD 5) test as conducted in accordance to Standard Methods of the Examination of Water and Wastewater. PolySeed® is an EPA approved BOD 5 seed inoculum that has been used to seed both municipal and industrial wastes for almost 20 years.
Agar: Trypticase Soy Agar (TSA)
Incubation condition: 48 hours at 30±1° C.
The above three sample group agar plates are used as the sample matrices of different initial situation for spiking 0.5 ml bacteria solution for every 60 minutes, i.e.: there was an on-going process of spiking bacteria at time 0, 60, 120, 180, 240, 300 minutes;
A swab testing is carried out every 30 minutes from matrix samples of each group to test for the viable count of bacteria at the time interval.
• AM: 0.5 ml bacteria solution is added at T0-10 min; • Sample A1: To swab from AM at T0; Sample A2: To swab from AM at T1; • AM: 0.5 ml bacteria solution is added at T2-10 min; • Sample A3: To swab from AM at T2; Sample A4: To swab from AM at T3; • AM: 0.5 ml bacteria solution is added at T4-10 min; and so forth. Table 2 summarized the testing schedule for durability test.

The test system of experiment [2] is PolySeed® BOD Seed Inoculum. In words: Volatility test (duration of bacteria inhibition on treated agar plate). The format is cell-based. The method, then: To study the duration on ability of bacteria inhibition of an exemplary composition, a volatility test is performed.
• Group A: Agar plate with 0.5 mL distilled water; • Group B: Agar plate with 0.5 mL 75% isopropyl alcohol (IPA); • Group C: Agar plate with 0.5 g of tested exemplary composition. Bacteria strain used: PolySeed® BOD Seed Inoculum Capsules (1 capsule dissolved into 500 mL Distilled Water) (Interlab) Agar: Trypticase Soy Agar (TSA) Incubation condition: 48 hours at 30±1° C. Testing Procedure 0.5 mL bacteria solution is add into the agar plate groups A, B and C at the time interval of Tx. as defined in Table 1.3.
After T10, bacteria solution is spiked to all the agar plates except agar blank.
Swab test is carried out to test for the viable count of bacteria at the time interval Tx.

Turning to `CC(C)O` [75% IPA, isopropyl alcohol], the CFU/plate was found to be 8 CFU/plate in experiment [1] (T0 (0 min)); 28 CFU/plate in experiment [1] (T1 (30 min)); 53 CFU/plate in experiment [1] (T2 (60 min)); 89 CFU/plate in experiment [1] (T3 (90 min)); 254 CFU/plate in experiment [1] (T4 (120 min)); 346 CFU/plate in experiment [1] (T5 (150 min)). Also, the CFU/plate entry is “Uncountable (the bacterial colonies are too numerous to be counted in the agar plate, e.g., more than 335 colonies per plate)” in experiment [1] (T6 (180 min)); “Uncountable (the bacterial colonies are too numerous to be counted in the agar plate, e.g., more than 335 colonies per plate)” in experiment [1] (T7 (210 min)); “Uncountable (the bacterial colonies are too numerous to be counted in the agar plate, e.g., more than 335 colonies per plate)” in experiment [1] (T8 (240 min)); “Uncountable (the bacterial colonies are too numerous to be counted in the agar plate, e.g., more than 335 colonies per plate)” in experiment [1] (T9 (270 min)); “Uncountable (the bacterial colonies are too numerous to be counted in the agar plate, e.g., more than 335 colonies per plate)” in experiment [1] (T10 (300 min)); 54 CFU/plate in experiment [2] (T0 (0 min)). Further, the CFU/plate in experiment [2] (T1 (30 min)) is on record as 62 CFU/plate; in experiment [2] (T2 (60 min)), 50 CFU/plate; in experiment [2] (T3 (90 min)), 45 CFU/plate; in experiment [2] (T4 (120 min)) it was 49 CFU/plate; in experiment [2] (T5 (150 min)), 55 CFU/plate; in experiment [2] (T6 (180 min)) it was 43 CFU/plate. Also, the CFU/plate in experiment [2] (T7 (210 min)) is 37 CFU/plate; in experiment [2] (T8 (240 min)) it was 44 CFU/plate; in experiment [2] (T9 (270 min)) it was 49 CFU/plate; in experiment [2] (T10 (300 min)), 0 CFU/plate.
